Measurements taken from patent publication US20250026724A1, “(1,4,5-TRISUBSTITUTED 1H-PYRAZOL-3-YL)OXY-2-ALKYLTHIOALKYL ACIDS AND -ALKYL ACID DERIVATIVES, SALTS THEREOF AND USE THEREOF AS ACTIVE HERBICIDAL INGREDIENTS” (BAYER AKTIENGESELLSCHAFT, priority 2021, published 2025).

Tested on: Setaria viridis (SETVI)
Test: Post-emergence herbicidal action, greenhouse pot trial
Format: in vivo
Details: 80 g/ha, visual rating after about 3 weeks
Procedure: (§1) Seeds of monocotyledonous and dicotyledonous weeds and crop plants are placed in sandy loam in plastic or organic planting pots, covered with soil and cultivated in a greenhouse under controlled growth conditions. 2 to 3 weeks after sowing, the trial plants are treated at the one-leaf stage. The compounds of the invention, formulated in the form of wettable powders (WP) or as emulsion concentrates (EC), are then sprayed onto the green parts of the plants as aqueous suspension or emulsion with addition of 0.5% additive at a water application rate equivalent to 600 l/ha. After about 3 weeks of keeping the trial plants in the greenhouse under optimum growth conditions, the effect of the preparations is rated visually in comparison to untreated controls. For example, 100% activity=the plants have died, 0% activity=like control plants.
(§2) Tables B1 to B14 below show the effects of selected compounds of the general formula (I) according to Table 1 on various harmful plants and at an application rate corresponding to 320 g/ha or lower, which were obtained by the trial procedure specified above. The appendices “a”, “b” and “c” give differentiation by dosage used with otherwise the same harmful plants tested.
(§3) As shown by results from Tables B1 to B19, inventive compounds of the general formula (I) in the case of post-emergence treatment have good herbicidal efficacy against harmful plants, for example Abutilon theophrasti (ABUTH), Alopecurus myosuroides (ALOMY), Amaranthus retroflexus (AMARE), Avena fatua (AVEFA), Digitaria sanguinalis (DIGSA), Echinochloa crus-galli (ECHCG), Bassia scoparia (KCHSC), Lolium rigidum (LOLRI), Matricaria inodora (MATIN), Pharbitis purpurea (PHBPU), Polygonum convolvulus (POLCO), Setaria viridis (SETVI), Veronica persica (VERPE) and Viola tricolor (VIOTR) at an application rate of 320 g of active substance or less per hectare, and good crop plant compatibility in the case of organisms such as Oryza sativa (ORYSA), Zea mays (ZEAMX), Brassica napus (BRSNW), Glycine max (GLXMA) and Triticum aestivum (TRZAS) at an application rate of 320 g or less per hectare.

SMILES	Post-emergence effect at 80 g/ha against SETVI in % [%]
COC(=O)C(Oc1nn(-c2ccccc2F)c(-c2ccc(F)nc2)c1I)SC (stereo not shown) [Example I-52]	80

Same assay, conditions: 320 g/ha, visual rating after about 3 weeks

SMILES	Post-emergence effect at 320 g/ha against SETVI in % [%]
COC(=O)C(Oc1nn(-c2ncccc2F)c(-c2ccc(F)nc2)c1Br)SC (single isomer, unassigned) [Example I-27]	90

Same assay, conditions: Setaria viridis, 504 h, 320 g/ha, visual rating after about 3 weeks, read-out: Post-emergence effect at 320 g/ha against SETVI in %

SMILES	pest or weed control at 320 g/ha [%]
CSC(Oc1nn(-c2ncccc2F)c(-c2ccc(F)nc2)c1Br)C(=O)O (single isomer, unassigned) [Example I-24]	90
COC(=O)C(Oc1nn(-c2ccccc2F)c(-c2ccc(F)nc2)c1I)SC (stereo not shown) [Example I-52]	90

Tested on: Bassia scoparia (KCHSC)
Test: as above
Format: in vivo
Details: Bassia scoparia, 504 h, 80 g/ha, read-out: Post-emergence effect against KCHSC
Procedure: as §1, §2, §3

SMILES	pest or weed control at 80 g/ha [%]
CSC(Oc1nn(-c2ncccc2F)c(-c2ccc(F)nc2)c1Br)C(=O)O (single isomer, unassigned) [Example I-24]	80

Same assay, conditions: Bassia scoparia, 504 h, 320 g/ha, read-out: Post-emergence effect against KCHSC

SMILES	pest or weed control at 320 g/ha [%]
CSC(Oc1nn(-c2ncccc2F)c(-c2ccc(F)nc2)c1Br)C(=O)O (single isomer, unassigned) [Example I-24]	80
COC(=O)C(Oc1nn(-c2ncccc2F)c(-c2ccc(F)nc2)c1Br)SC (single isomer, unassigned) [Example I-27]	80

Tested on: Lolium rigidum (LOLRI)
Test: as above
Format: in vivo
Details: Lolium rigidum, 504 h, 320 g/ha, visual rating after about 3 weeks, read-out: Post-emergence effect at 320 g/ha against LOLRI in %
Procedure: as §1, §2, §3

SMILES	pest or weed control at 320 g/ha [%]
COC(=O)C(Oc1nn(-c2ccccc2F)c(-c2ccc(F)nc2)c1I)SC (stereo not shown) [Example I-52]	100

Tested on: Echinochloa crus-galli (ECHCG)
Test: as above
Format: in vivo
Details: 320 g/ha, visual rating after about 3 weeks
Procedure: as §1, §2, §3

SMILES	Post-emergence effect at 320 g/ha against ECHCG in % [%]
COC(=O)C(Oc1nn(-c2ncccc2F)c(-c2ccc(F)nc2)c1Br)SC (single isomer, unassigned) [Example I-27]	90

Same assay, conditions: Echinochloa crus-galli, 504 h, 320 g/ha, visual rating after about 3 weeks, read-out: Post-emergence effect at 320 g/ha against ECHCG in %

SMILES	pest or weed control at 320 g/ha [%]
CSC(Oc1nn(-c2ncccc2F)c(-c2ccc(F)nc2)c1Br)C(=O)O (single isomer, unassigned) [Example I-24]	90
COC(=O)C(Oc1nn(-c2ccccc2F)c(-c2ccc(F)nc2)c1I)SC (stereo not shown) [Example I-52]	90

Tested on: Pharbitis purpurea (PHBPU)
Test: as above
Format: in vivo
Details: 320 g/ha, visual rating after about 3 weeks
Procedure: as §1, §2, §3

SMILES	Post-emergence effect at 320 g/ha against PHBPU in % [%]
COC(=O)C(Oc1nn(-c2ncccc2F)c(-c2ccc(F)nc2)c1Br)SC (single isomer, unassigned) [Example I-27]	100

Same assay, conditions: Ipomoea purpurea, 504 h, 80 g/ha, visual rating after about 3 weeks, read-out: Post-emergence effect at 80 g/ha against PHBPU in %

SMILES	pest or weed control at 80 g/ha [%]
CSC(Oc1nn(-c2ncccc2F)c(-c2ccc(F)nc2)c1Br)C(=O)O (single isomer, unassigned) [Example I-24]	90

Same assay, conditions: Ipomoea purpurea, 504 h, 320 g/ha, visual rating after about 3 weeks, read-out: Post-emergence effect at 320 g/ha against PHBPU in %

SMILES	pest or weed control at 320 g/ha [%]
CSC(Oc1nn(-c2ncccc2F)c(-c2ccc(F)nc2)c1Br)C(=O)O (single isomer, unassigned) [Example I-24]	90

Tested on: Amaranthus retroflexus (AMARE)
Test: as above
Format: in vivo
Details: 80 g/ha, visual rating after about 3 weeks
Procedure: as §1, §2, §3

SMILES	Post-emergence effect at 80 g/ha against AMARE in % [%]
COC(=O)C(Oc1nn(-c2ncccc2F)c(-c2ccc(F)nc2)c1Br)SC (single isomer, unassigned) [Example I-27]	80

Same assay, conditions: 320 g/ha, visual rating after about 3 weeks

SMILES	Post-emergence effect at 320 g/ha against AMARE in % [%]
COC(=O)C(Oc1nn(-c2ncccc2F)c(-c2ccc(F)nc2)c1Br)SC (single isomer, unassigned) [Example I-27]	80

Same assay, conditions: Amaranthus retroflexus, 504 h, 320 g/ha, visual rating after about 3 weeks, read-out: Post-emergence effect at 320 g/ha against AMARE in %

SMILES	pest or weed control at 320 g/ha [%]
CSC(Oc1nn(-c2ncccc2F)c(-c2ccc(F)nc2)c1Br)C(=O)O (single isomer, unassigned) [Example I-24]	80
COC(=O)C(Oc1nn(-c2ccccc2F)c(-c2ccc(F)nc2)c1I)SC (stereo not shown) [Example I-52]	90

Tested on: Abutilon theophrasti (ABUTH)
Test: as above
Format: in vivo
Details: 80 g/ha, visual rating after about 3 weeks
Procedure: as §1, §2, §3

SMILES	Post-emergence effect at 80 g/ha against ABUTH in % [%]
COC(=O)C(Oc1nn(-c2ncccc2F)c(-c2ccc(F)nc2)c1Br)SC (single isomer, unassigned) [Example I-27]	80

Same assay, conditions: 320 g/ha, visual rating after about 3 weeks

SMILES	Post-emergence effect at 320 g/ha against ABUTH in % [%]
COC(=O)C(Oc1nn(-c2ncccc2F)c(-c2ccc(F)nc2)c1Br)SC (single isomer, unassigned) [Example I-27]	90

Same assay, conditions: Abutilon theophrasti, 504 h, 320 g/ha, visual rating after about 3 weeks, read-out: Post-emergence effect at 320 g/ha against ABUTH in %

SMILES	pest or weed control at 320 g/ha [%]
CSC(Oc1nn(-c2ncccc2F)c(-c2ccc(F)nc2)c1Br)C(=O)O (single isomer, unassigned) [Example I-24]	80
COC(=O)C(Oc1nn(-c2ccccc2F)c(-c2ccc(F)nc2)c1I)SC (stereo not shown) [Example I-52]	80

Tested on: Polygonum convolvulus (POLCO)
Test: as above
Format: in vivo
Details: 20 g/ha, visual rating after about 3 weeks
Procedure: as §1, §2, §3

SMILES	Post-emergence effect at 20 g/ha against POLCO in % [%]
COC(=O)C(Oc1nn(-c2ncccc2F)c(-c2ccc(F)nc2)c1Br)SC (single isomer, unassigned) [Example I-27]	80

Same assay, conditions: 80 g/ha, visual rating after about 3 weeks

SMILES	Post-emergence effect at 80 g/ha against POLCO in % [%]
COC(=O)C(Oc1nn(-c2ncccc2F)c(-c2ccc(F)nc2)c1Br)SC (single isomer, unassigned) [Example I-27]	80

Same assay, conditions: 320 g/ha, visual rating after about 3 weeks

SMILES	Post-emergence effect at 320 g/ha against POLCO in % [%]
COC(=O)C(Oc1nn(-c2ncccc2F)c(-c2ccc(F)nc2)c1Br)SC (single isomer, unassigned) [Example I-27]	90

Same assay, conditions: Fallopia convolvulus, 504 h, 320 g/ha, visual rating after about 3 weeks, read-out: Post-emergence effect at 320 g/ha against POLCO in %

SMILES	pest or weed control at 320 g/ha [%]
CSC(Oc1nn(-c2ncccc2F)c(-c2ccc(F)nc2)c1Br)C(=O)O (single isomer, unassigned) [Example I-24]	90
COC(=O)C(Oc1nn(-c2ccccc2F)c(-c2ccc(F)nc2)c1I)SC (stereo not shown) [Example I-52]	90

Tested on: Avena fatua (AVEFA)
Test: as above
Format: in vivo
Details: 320 g/ha, visual rating after about 3 weeks
Procedure: as §1, §2, §3

SMILES	Post-emergence effect at 320 g/ha against AVEFA in % [%]
COC(=O)C(Oc1nn(-c2ncccc2F)c(-c2ccc(F)nc2)c1Br)SC (single isomer, unassigned) [Example I-27]	90

Same assay, conditions: Avena fatua, 504 h, 320 g/ha, visual rating after about 3 weeks, read-out: Post-emergence effect at 320 g/ha against AVEFA in %

SMILES	pest or weed control at 320 g/ha [%]
CSC(Oc1nn(-c2ncccc2F)c(-c2ccc(F)nc2)c1Br)C(=O)O (single isomer, unassigned) [Example I-24]	80

Tested on: Digitaria sanguinalis (DIGSA)
Test: as above
Format: in vivo
Details: 320 g/ha, visual rating after about 3 weeks
Procedure: as §1, §2, §3

SMILES	Post-emergence effect at 320 g/ha against DIGSA in % [%]
COC(=O)C(Oc1nn(-c2ncccc2F)c(-c2ccc(F)nc2)c1Br)SC (single isomer, unassigned) [Example I-27]	90

Same assay, conditions: Digitaria sanguinalis, 504 h, 320 g/ha, visual rating after about 3 weeks, read-out: Post-emergence effect at 320 g/ha against DIGSA in %

SMILES	pest or weed control at 320 g/ha [%]
CSC(Oc1nn(-c2ncccc2F)c(-c2ccc(F)nc2)c1Br)C(=O)O (single isomer, unassigned) [Example I-24]	90
COC(=O)C(Oc1nn(-c2ccccc2F)c(-c2ccc(F)nc2)c1I)SC (stereo not shown) [Example I-52]	80

Tested on: Matricaria inodora (MATIN)
Test: as above
Format: in vivo
Details: 320 g/ha, visual rating after about 3 weeks
Procedure: as §1, §2, §3

SMILES	Post-emergence effect at 320 g/ha against MATIN in % [%]
COC(=O)C(Oc1nn(-c2ncccc2F)c(-c2ccc(F)nc2)c1Br)SC (single isomer, unassigned) [Example I-27]	80

Same assay, conditions: Tripleurospermum inodorum, 504 h, 320 g/ha, visual rating after about 3 weeks, read-out: Post-emergence effect at 320 g/ha against MATIN in %

SMILES	pest or weed control at 320 g/ha [%]
CSC(Oc1nn(-c2ncccc2F)c(-c2ccc(F)nc2)c1Br)C(=O)O (single isomer, unassigned) [Example I-24]	80
COC(=O)C(Oc1nn(-c2ccccc2F)c(-c2ccc(F)nc2)c1I)SC (stereo not shown) [Example I-52]	80

Tested on: Viola tricolor (VIOTR)
Test: as above
Format: in vivo
Details: 80 g/ha
Procedure: as §1, §2, §3

SMILES	Post-emergence effect against VIOTR [%]
COC(=O)C(Oc1nn(-c2ncccc2F)c(-c2ccc(F)nc2)c1Br)SC (single isomer, unassigned) [Example I-27]	80

Same assay, conditions: 320 g/ha

SMILES	Post-emergence effect against VIOTR [%]
COC(=O)C(Oc1nn(-c2ncccc2F)c(-c2ccc(F)nc2)c1Br)SC (single isomer, unassigned) [Example I-27]	90

Same assay, conditions: Viola tricolor, 504 h, 80 g/ha, read-out: Post-emergence effect against VIOTR

SMILES	pest or weed control at 80 g/ha [%]
COC(=O)C(Oc1nn(-c2ccccc2F)c(-c2ccc(F)nc2)c1I)SC (stereo not shown) [Example I-52]	80

Same assay, conditions: Viola tricolor, 504 h, 320 g/ha, read-out: Post-emergence effect against VIOTR

SMILES	pest or weed control at 320 g/ha [%]
CSC(Oc1nn(-c2ncccc2F)c(-c2ccc(F)nc2)c1Br)C(=O)O (single isomer, unassigned) [Example I-24]	90
COC(=O)C(Oc1nn(-c2ccccc2F)c(-c2ccc(F)nc2)c1I)SC (stereo not shown) [Example I-52]	90
